Columns and labels:
[1] = Encapsulation efficiency of lipid nanoparticles, Quant-it Ribogreen RNA assay; type: physicochemical; details: LNP of lipid/DSPC/cholesterol/PEG-lipid 50:10:38.5:1.5 encapsulating hEPO mRNA
Procedure: (§1) Briefly, a cationic lipid provided herein, DSPC, cholesterol, and PEG-lipid were solubilized in ethanol at a molar ratio of 50:10:38.5:1.5, and mRNA were diluted in 10 to 50 mM citrate buffer, pH=4. The LNPs were prepared at a total lipid to mRNA weight ratio of approximately 10:1 to 30:1 by mixing the ethanolic lipid solution with the aqueous mRNA solution at a volume ratio of 1:3 using a microfluidic apparatus, total flow rate ranging from 9-30 mL/min. Ethanol were thereby removed and replaced by DPBS using dialysis. Finally, the lipid nanoparticles were filtered through a […] sterile filter.
(§2) Lipid nanoparticle size were determined by dynamic light scattering using a Malvern Zetasizer Nano ZS (Malvern UK) using a […] backscatter detection mode. The encapsulation efficiency of lipid nanoparticles were determined using a Quant-it Ribogreen RNA quantification assay kit (Thermo Fisher Scientific, UK) according to the manufacturer's instructions.

[2] = Lipid nanoparticle size and polydispersity by dynamic light scattering; type: physicochemical; details: LNP of lipid/DSPC/cholesterol/PEG-lipid 50:10:38.5:1.5 encapsulating hEPO mRNA
Procedure: as §1, §2

Compound: CCCCCCCCCCCOC(=O)CCCCCN1CCC(N(CCO)CCCCCCCC(=O)OC(CCCCCCCC)CCCCCCCC)CC1 [Compound 174]
- Encapsulation Efficiency [1]: 91.79%
- polydispersity [2]: 0.063
- size (nm) [2]: 78.27 nm

Compound: CCCCCCCCCCCOC(=O)CCCCCN(CCN(CCO)CCCCCC(=O)OCC(CCCCCC)CCCCCCCC)C1CCCCC1 (stereo not drawn) [Compound 6]
- Encapsulation Efficiency [1]: 87.7%
- polydispersity [2]: 0.089
- size (nm) [2]: 101.6 nm

Compound: CCCCCCCCCCCC(=O)OCCCCCN(CCN(CCO)CCCCCOC(=O)CC(CCCCCCCC)CCCCCCCC)C1CCCC1 [Compound 93]
- Encapsulation Efficiency [1]: 92.84%
- polydispersity [2]: 0.064
- size (nm) [2]: 76.12 nm

Compound: CCCCCCCC(=O)OCC(CCCCN(CCO)CCN(CCCCC(COC(=O)CCCCCCC)COC(=O)CCCCCCC)C1CCCCCC1)COC(=O)CCCCCCC [Compound 160]
- Encapsulation Efficiency [1]: 86.18%
- polydispersity [2]: 0.096
- size (nm) [2]: 86.16 nm

Compound: CCCCCCCCC(CCCCCC)C(=O)OCCCCCCN(CCO)CCN(CCCCCCOC(=O)C(CCCCCC)CCCCCCCC)C1CCC1 (stereo not drawn) [Compound 69]
- Encapsulation Efficiency [1]: 88.86%
- polydispersity [2]: 0.096
- size (nm) [2]: 60.99 nm

Compound: CCCCCCCCCCCOC(=O)CCCCCN(CCN(CCO)CCCCCC(=O)N(CCCCCCCC)CCCCCCCC)C1CCCCC1 [Compound 90]
- Encapsulation Efficiency [1]: 82.56%
- polydispersity [2]: 0.030
- size (nm) [2]: 101.70 nm

Compound: CCCCCCCCC(CCCCCC)CNC(=O)CCCCCN(C)CCN(CCO)CCCCC(COC(=O)CCCCCCC)COC(=O)CCCCCCC (stereo not drawn) [Compound 158]
- Encapsulation Efficiency [1]: 89.17%
- polydispersity [2]: 0.058
- size (nm) [2]: 63.54 nm

Compound: CCCCCCCCCCCCCCCCOC(=O)CCCCCN(CCN(CCO)CCCCCC(=O)OCC(CCCCCCCC)CCCCCCCC)C1CCCCC1 [Compound 104]
- Encapsulation Efficiency [1]: 92.43%
- polydispersity [2]: 0.044
- size (nm) [2]: 66.62 nm

Compound: CCCCCCCCCCCOC(=O)CCCCCN(CCN(CCO)CCCCCC(=O)OCC(CCCCCCCC)CCCCCCCC)C1CC1 [Compound 129]
- Encapsulation Efficiency [1]: 90.52%
- polydispersity [2]: 0.069
- size (nm) [2]: 58.08 nm

Compound: CCCCCCCCC(CCCCCCCC)CNC(=O)CCCCCN1CCC(N(CCO)CCCCCC(=O)OCC(CCCCCCCC)CCCCCCCC)CC1 [Compound 171]
- Encapsulation Efficiency [1]: 96.23%
- polydispersity [2]: 0.076
- size (nm) [2]: 76.26 nm

Compound: CCCCCCCCC(CCCCCC)COC(=O)CCCCCN(CCO)CCN(CCCCCC(=O)OCC(CCCCCC)CCCCCCCC)C1CC1 (stereo not drawn) [Compound 9]
- Encapsulation Efficiency [1]: 93.9%
- polydispersity [2]: 0.181
- size (nm) [2]: 55.12 nm

Compound: CCCCCCCCC(CCCCCC)CNC(=O)CCCCCN(CCCCN(CCO)CCCCC(COC(=O)CCCCCCC)COC(=O)CCCCCCC)C1CCCCC1 (stereo not drawn) [Compound 197]
- Encapsulation Efficiency [1]: 91.45%
- polydispersity [2]: 0.158
- size (nm) [2]: 70.01 nm

Compound: CCCCCCCCC(CCCCCCCC)COC(=O)CCCCCN(CCO)Cc1ccc(CN(CCCCCC(=O)OCC(CCCCCCCC)CCCCCCCC)C2CCC2)cc1 [Compound 88]
- Encapsulation Efficiency [1]: 92.56%
- polydispersity [2]: 0.080
- size (nm) [2]: 71.00 nm

Compound: CCCCCCCCCCCCCCOCC(CN(CCN(CCO)CCCCCC(=O)OCC(CCCCCCCC)CCCCCCCC)C1CCC1)OCCCCCCCC (stereo not drawn) [Compound 20]
- Encapsulation Efficiency [1]: 95.8%
- polydispersity [2]: 0.015
- size (nm) [2]: 74.98 nm

Compound: CCCCCCCCC(CCCCCCCC)CNC(=O)CCCCCN(CCO)CCN(CCCCCC(=O)NCC(CCCCCCCC)CCCCCCCC)C1CCC1 [Compound 11]
- Encapsulation Efficiency [1]: 82.8%
- polydispersity [2]: 0.055
- size (nm) [2]: 66.15 nm

Compound: CCCCCCCCCCCOC(=O)CCCCCN(CCN(CCO)CCCCCNP(=O)(OCCCCCCCCC)OCCCCCCCCC)C1CCCCC1 [Compound 100]
- Encapsulation Efficiency [1]: 85.49%
- polydispersity [2]: 0.085
- size (nm) [2]: 93.16 nm

Compound: CCCCCCCCCCCOC(=O)CCCCCN(CCN(CCO)CCCCCC(=O)OCC(CCCCCCC)CCCCCCC)C1CCCCC1 [Compound 22]
- Encapsulation Efficiency [1]: 95.5%
- polydispersity [2]: 0.047
- size (nm) [2]: 87.7 nm

Compound: CCCCCCCCCCCOC(=O)CCCCCN(CC=C(C)C)CCN(CCO)CCCCCC(=O)OCC(CCCCCCCC)CCCCCCCC [Compound 119]
- Encapsulation Efficiency [1]: 92.21%
- polydispersity [2]: 0.087
- size (nm) [2]: 69.75 nm

Compound: CCCCCCCCC(CCCCCC)COC(=O)CCCCCN(CCO)CCN(CCCCC(COC(=O)CCCCCCC)COC(=O)CCCCCCC)C1CCC1 (stereo not drawn) [Compound 135]
- Encapsulation Efficiency [1]: 87.16%
- polydispersity [2]: 0.035
- size (nm) [2]: 124.60 nm

Compound: CCCCCCCCCOC(=O)CCCCCCCN(CCO)C1CCN(CCCCCCCC(=O)OC(CCCCCCCC)CCCCCCCC)CC1 [Compound 176]
- Encapsulation Efficiency [1]: 95.27%
- polydispersity [2]: 0.123
- size (nm) [2]: 65.70 nm

Compound: CCCCCCCCC(CCCCCCCC)CNC(=O)CCCCCN(CCO)CCN(CCCCCC(=O)NCC(CCCCCCCC)CCCCCCCC)C1CCCCCC1 [Compound 14]
- Encapsulation Efficiency [1]: 89.8%
- polydispersity [2]: 0.118
- size (nm) [2]: 60.06 nm

Compound: CCCCCCCCC(CCCCCC)CNC(=O)CCN(CCO)CCN(CCCCC(COC(=O)CCCCCCC)COC(=O)CCCCCCC)C1CCCCCC1 (stereo not drawn) [Compound 212]
- Encapsulation Efficiency [1]: 87.31%
- polydispersity [2]: 0.048
- size (nm) [2]: 122.1 nm

Compound: CCCCCCCCCCCOC(=O)CCCCCN(CCN(CCO)CCCCCC(=O)OCC(CCCCCCCC)CCCCCCCC)C1CCCC1 [Compound 130]
- Encapsulation Efficiency [1]: 91.06%
- polydispersity [2]: 0.060
- size (nm) [2]: 76.86 nm

Compound: CCCCCCCCCC(=O)OCC(CCCCN(CCO)CCN(CCCCC(COC(=O)CCCCCCCCC)COC(=O)CCCCCCCCC)C1CCC1)COC(=O)CCCCCCCCC [Compound 167]
- Encapsulation Efficiency [1]: 91.97%
- polydispersity [2]: 0.128
- size (nm) [2]: 69.47 nm

Compound: CCCCCCCCCCCOC(=O)CCCCCN(CCN(CCO)CCOCCC(=O)OCC(CCCCCCCC)CCCCCCCC)C1CCC1 [Compound 114]
- Encapsulation Efficiency [1]: 90.35%
- polydispersity [2]: 0.044
- size (nm) [2]: 81.25 nm

Compound: CCCCCCCCC(CCCCCC)CNC(=O)CCCCCN(CC=C(C)C)CCN(CCO)CCCCC(COC(=O)CCCCCCC)COC(=O)CCCCCCC (stereo not drawn) [Compound 149]
- Encapsulation Efficiency [1]: 92.71%
- polydispersity [2]: 0.043
- size (nm) [2]: 78.75 nm

Compound: CCCCCCCCC(CCCCCC)COC(=O)CCCCCN(C)CCN(CCO)CCCCC(COC(=O)CCCCCCC)COC(=O)CCCCCCC (stereo not drawn) [Compound 156]
- Encapsulation Efficiency [1]: 89.69%
- polydispersity [2]: 0.190
- size (nm) [2]: 73.36 nm

Compound: CCCCCCCCCCCC(=O)OCCCCCN(CCN(CCO)CCCCCNC(=O)CC(CCCCCCCC)CCCCCCCC)C1CCCCC1 [Compound 59]
- Encapsulation Efficiency [1]: 95.1%
- polydispersity [2]: 0.063
- size (nm) [2]: 70.3 nm

Compound: CCCCCCCCCCCCC(O)CN(CCCCCC(=O)OCC(CCCCCC)CCCCCCCC)CCN(CCCCCC(=O)OCCCCCCCCCCC)C1CCC1 (stereo not drawn) [Compound 2]
- Encapsulation Efficiency [1]: 86.6%
- polydispersity [2]: 0.066
- size (nm) [2]: 64.03 nm

Compound: CCCCCCCCC(CCCCCCCC)CNC(=O)CCCCCN1CCC(N(CCO)CCCCCC(=O)NCC(CCCCCCCC)CCCCCCCC)CC1 [Compound 172]
- Encapsulation Efficiency [1]: 93.55%
- polydispersity [2]: 0.061
- size (nm) [2]: 69.59 nm
